Results on 11 compounds are retold here after ChEMBL document CHEMBL1201862, “PubChem BioAssay data set” (2004).

Some test systems named below: IGROV-1; UO-31; MDA-N; T47D; K562; SW-620; NCI-H23; RPMI-8226; TK-10; OVCAR-3; SF-539; SNB-75; SN12C; OVCAR-8; MCF7; SF-295; MDA-MB-435; ACHN; NCI-H460; HOP-92.
Common to all, as to test: inhibition of tumour cell growth, NCI panel, 48 h

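Interpolation was linear, between the two tested concentrations surrounding the appropriate level; five concentrations were tested over 48 hours in 96-well plates. At the GI50, growth is halved.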 The source made the active and inactive calls. Rule as the data show it: active = GI50 up to about 1.1 µM and inactive = higher. A value given as a limit tells only on which side of the number the result lay.

For `O=C(O)C(Cc1ccccc1)Cc1ccccc1`, the GI50 in the assay with IGROV-1, in the assay with UO-31, in the assay on MDA-N, in the assay on T47D, in the assay on K562 and with SW-620 was > 100 µM (inactive) in each case. The GI50 with NCI-H23, with RPMI-8226, with TK-10, in the assay on OVCAR-3, in the assay with SF-539 and in the assay with SNB-75 was > 100 µM (inactive) each time. The GI50 in the assay with SN12C, in the assay with OVCAR-8, in the assay on MCF7, in the assay with SF-295, in the assay on MDA-MB-435 and with ACHN was > 100 µM (inactive) each time. Moreover, in the assay on NCI-H460, the GI50 is > 100 µM (inactive).
In the case of `COc1cc(C2C(C#N)=C(N)OC3=C2CCS(=O)(=O)c2ccc(C)cc23)cc(OC)c1OC` (centres undefined), the GI50 in the assay with IGROV-1, with UO-31, with MDA-N, in the assay on T47D, with K562 and in the assay on SW-620 was > 100 µM (inactive) in each case. The GI50 in the assay on NCI-H23, in the assay on RPMI-8226, in the assay with HOP-92, in the assay with TK-10, in the assay with OVCAR-3 and in the assay with SNB-75 was > 100 µM (inactive) in each case. Besides, the GI50 with SN12C, with OVCAR-8, with MDA-MB-435, with ACHN and with NCI-H460 was > 100 µM (inactive) in each case.
For `Nc1nc2cc(Cl)ccc2n1N`, the GI50 in the assay with IGROV-1, in the assay on UO-31, in the assay on MDA-N, with T47D, in the assay on K562 and with SW-620 was > 100 µM (inactive) each time. The GI50 in the assay with NCI-H23, in the assay with RPMI-8226, with TK-10, in the assay with SF-539, in the assay on SNB-75 and in the assay with SN12C was > 100 µM (inactive) throughout. Also, the GI50 in the assay with OVCAR-8, in the assay on MCF7, in the assay on SF-295, with MDA-MB-435 and in the assay on ACHN was > 100 µM (inactive) each time.
As to `S=C1/C(=N/c2ccccc2)N(c2ccccc2)/C(=N\c2ccccn2)N1c1ccccc1`, the GI50 is 13.3 µM (inactive) in the assay with IGROV-1; 13.3 µM (inactive) in the assay on UO-31; 6.3 µM (inactive) in the assay with MDA-N; 15 µM (inactive) with T47D; > 100 µM (inactive) with K562; 14 µM (inactive) in the assay on SW-620. For the same compound, the GI50 is 12.3 µM (inactive) in the assay with NCI-H23; 6.78 µM (inactive) in the assay on RPMI-8226; 13 µM (inactive) in the assay on HOP-92; 15.5 µM (inactive) in the assay with TK-10; < 0.01 µM (active) in the assay with SF-539; 14.7 µM (inactive) with SNB-75. Moreover, the GI50 with SN12C was 8.41 µM (inactive); in the assay on OVCAR-8, 14.5 µM (inactive); with SF-295, 16.3 µM (inactive); in the assay on MDA-MB-435 it was 15.2 µM (inactive); in the assay on ACHN, 4.32 µM (inactive); in the assay with NCI-H460 it was 13.6 µM (inactive).
Turning to `CN(C(=O)Cc1cc(Cl)c(Cl)cc1NC(=O)CCCN)[C@H]1CCCC[C@@H]1N1CCCC1`, the GI50 in the assay with IGROV-1 was > 100 µM (inactive); in the assay on UO-31, > 100 µM (inactive); in the assay with MDA-N it was 16.7 µM (inactive); in the assay on T47D, 29.8 µM (inactive); in the assay on K562, > 100 µM (inactive); in the assay with SW-620, 28.6 µM (inactive). The GI50 in the assay with NCI-H23 was > 100 µM (inactive); with RPMI-8226, > 100 µM (inactive); in the assay on TK-10 it was 57.8 µM (inactive); with OVCAR-3, > 100 µM (inactive); with SN12C, 63.5 µM (inactive); in the assay on OVCAR-8 it was > 100 µM (inactive). Besides, the GI50 with MCF7 is 20.1 µM (inactive); in the assay on SF-295, 58.2 µM (inactive); in the assay on MDA-MB-435, 16.4 µM (inactive); with ACHN, > 100 µM (inactive).
Take `COc1cc(N(CCC#N)CCC#N)ccc1C(/N=N/c1ccccc1C)=N\NC(=O)c1ccc(C)cc1`: the GI50 in the assay with IGROV-1 is 75 µM (inactive); in the assay with UO-31, 76.2 µM (inactive); in the assay with MDA-N it was 23.8 µM (inactive); in the assay on T47D it was 38.2 µM (inactive); in the assay on K562, 29.8 µM (inactive); in the assay on SW-620, 72.9 µM (inactive). The GI50 in the assay on NCI-H23 was 91.8 µM (inactive); in the assay on HOP-92, 53.8 µM (inactive); with TK-10, > 100 µM (inactive); in the assay on OVCAR-3, 24.2 µM (inactive); in the assay on SN12C it was 44.1 µM (inactive); with OVCAR-8, 71 µM (inactive). Further, the GI50 in the assay on SF-295 is > 100 µM (inactive); in the assay on MDA-MB-435, 29.3 µM (inactive); with NCI-H460 it was 73.5 µM (inactive).
Regarding `CN(Cc1ccccc1)c1cc(=O)n(C)c(=O)[nH]1`, the GI50 in the assay on UO-31, in the assay with MDA-N, in the assay with T47D, with K562, in the assay on SW-620 and in the assay on NCI-H23 was > 100 µM (inactive) each time. The GI50 in the assay with RPMI-8226, in the assay on HOP-92, with TK-10, with OVCAR-3, in the assay on SF-539 and in the assay on SN12C was > 100 µM (inactive) in each case. For the same compound, the GI50 with OVCAR-8, in the assay with MCF7, in the assay with SF-295, with MDA-MB-435, with ACHN and in the assay on NCI-H460 was > 100 µM (inactive) each time.
For `O=C1C=CC(=O)c2c(O)nc(CBr)nc21`, the GI50 in the assay on IGROV-1 is > 100 µM (inactive); with UO-31, > 100 µM (inactive); in the assay with MDA-N it was 36.1 µM (inactive); in the assay on T47D it was > 100 µM (inactive); in the assay with K562, 94.4 µM (inactive); with NCI-H23 it was 80.5 µM (inactive). The GI50 in the assay with RPMI-8226 is 97.9 µM (inactive); with OVCAR-3, > 100 µM (inactive); with SF-539, > 100 µM (inactive); in the assay on SNB-75, > 100 µM (inactive); in the assay on SN12C, 38.5 µM (inactive); with OVCAR-8, > 100 µM (inactive). The GI50 is 56.2 µM (inactive) with MCF7, 68.9 µM (inactive) in the assay on SF-295, 30.4 µM (inactive) in the assay on MDA-MB-435 and > 100 µM (inactive) in the assay with ACHN.
On to `CNC(=S)N/N=C1\C(=O)N(CN2CCOCC2)c2ccc([N+](=O)[O-])cc21`, for which the GI50 in the assay on UO-31 was 3.05 µM (inactive); in the assay with MDA-N, 67.9 µM (inactive); in the assay on T47D it was 18.9 µM (inactive); in the assay on K562 it was > 100 µM (inactive); in the assay on SW-620 it was 28.2 µM (inactive); with NCI-H23, 17.7 µM (inactive). Further, the GI50 in the assay on RPMI-8226 is 21.2 µM (inactive); in the assay with HOP-92 it was 21.3 µM (inactive); in the assay on TK-10 it was 13.3 µM (inactive); with OVCAR-3 it was 17.5 µM (inactive); with SF-539 it was 17.7 µM (inactive); with SN12C, 16.4 µM (inactive). The GI50 in the assay with MCF7 is 20.4 µM (inactive); with SF-295, 18.2 µM (inactive); with MDA-MB-435, 60.3 µM (inactive); in the assay on ACHN it was 17.5 µM (inactive); with NCI-H460 it was 23.4 µM (inactive).
For the compound `COC1=C(Br)[C@H](O)[C@@]2(C=C1Br)CC(C(=O)NCCCOc1c(Br)cc(C(O)CNC(C)=O)cc1Br)=NO2` (some centres undefined) [APLYSINAMISINE III], the GI50 in the assay with IGROV-1 is > 10 µM (inactive); with UO-31, > 10 µM (inactive); with MDA-N it was 2.11 µM (inactive); with T47D it was > 10 µM (inactive); in the assay on K562, 2.24 µM (inactive); in the assay on SW-620 it was > 10 µM (inactive). Besides, the GI50 in the assay on NCI-H23 is > 10 µM (inactive); in the assay on RPMI-8226, > 10 µM (inactive); in the assay on TK-10, > 10 µM (inactive); in the assay on OVCAR-3, > 10 µM (inactive); in the assay on SF-539 it was > 10 µM (inactive); with SNB-75, 2.79 µM (inactive). The GI50 in the assay with SN12C is > 10 µM (inactive); with OVCAR-8, > 10 µM (inactive); in the assay on MCF7, 6.18 µM (inactive); with SF-295, > 10 µM (inactive); in the assay with MDA-MB-435, 2.18 µM (inactive); in the assay on ACHN, > 10 µM (inactive). Further, the GI50 with NCI-H460 was > 10 µM (inactive).
On to `CCc1nc(N)nc(N)c1-c1ccc(Cl)c(Cl)c1` [ETOPRINE], for which the GI50 with IGROV-1 is 2.96 µM (inactive); in the assay with UO-31, 2.52 µM (inactive); with T47D it was > 100 µM (inactive); in the assay with SW-620 it was 5.32 µM (inactive); with NCI-H23, 2.74 µM (inactive); in the assay on RPMI-8226, 9.71 µM (inactive). In addition, the GI50 is 13.3 µM (inactive) in the assay on HOP-92; 36.1 µM (inactive) in the assay on TK-10; 24.9 µM (inactive) in the assay with OVCAR-3; 5.16 µM (inactive) in the assay on SF-539; 35.1 µM (inactive) in the assay on SNB-75; 6.79 µM (inactive) in the assay with SN12C. The GI50 in the assay with MCF7 was 3.05 µM (inactive); in the assay with SF-295 it was 0.738 µM (active); in the assay on MDA-MB-435, 0.818 µM (active); with ACHN, 2.86 µM (inactive); in the assay with NCI-H460, 0.506 µM (active).
